Read-outs that look alike come from different tables or passages of the source.
Key:
Aβ40 = experiment: In vivo efficacy: brain level of soluble Aβ40, non-transgenic rodents, single oral dose 30 mg/kg, 4 h, MSD electrochemiluminescence, untreated control = 100; set-up: species or system mouse; conditions: for response vs control in vivo at 30 mg/kg / response vs control in vivo at 10 mg/kg: Mus musculus, read-out: Aβ40 (% vs Ctrl) _Mean; for response vs control in vivo at 10 mg/kg: 10 mpk po
Text: (§1) To determine whether acute administration of an Aβ42 lowering agent would reduce Aβ42 levels in vivo, non-transgenic rodents, e.g. mice or rats were used. Animals treated with the Aβ42 lowering agent were examined and compared to those untreated or treated with vehicle and brain levels of soluble Aβ42, Aβ40, Aβ38, and Aβ37 were quantitated by Meso Scale Discovery's (MSD) electrochemiluminescence detection technology. Treatment periods varied from hours (h) to days and were adjusted based on the results of the Aβ42 lowering once a time course of onset of effect could be established.
(§2) A typical protocol for measuring Aβ42 lowering in vivo is shown but it is only one of many variations that could be used to optimize the levels of detectable Aβ. For example, Aβ42 lowering compounds were formulated in 20% of Captisol® (a sulfobutyl ether of β-cyclodextrin) in water or 20% hydroxypropyl β cyclodextrin. The Aβ42 lowering agents were administered as a single oral dose or by any acceptable route of administration to overnight fasted animals. After 4 h, the animals were sacrificed and Aβ42 levels were analysed.
(§3) Blood was collected by decapitation and exsanguinations in EDTA-treated collection tubes. Blood was centrifuged at 1900 g for 10 minutes (min) at 4° C. and the plasma recovered and flash frozen for later analysis. The brain was removed from the cranium and hindbrain. The cerebellum was removed and the left and right hemisphere were separated. The left hemisphere was stored at −18° C. for quantitative analysis of test compound levels. The right hemisphere was rinsed with phosphate-buffered saline (PBS) buffer and immediately frozen on dry ice and stored at −80° C. until homogenization for biochemical assays.
(§4) Mouse brains from non-transgenic animals were resuspended in 8 volumes of 0.4% DEA (diethylamine)/50 mM NaCl containing protease inhibitors (Roche-11873580001 or 04693159001) per gram of tissue, e.g. for 0.158 g brain, add 1.264 ml of 0.4% DEA. All samples were homogenized in the FastPrep-24 system (MP Biomedicals) using lysing matrix D (MPBio #6913-100) at 6 m/s for 20 seconds. Homogenates were centrifuged at 20800×g for 5 min and supernatants collected. Supernatants were centrifuged at 221.300×g for 50 min. The resulting high speed supernatants were then transferred to fresh eppendorf tubes. Nine parts of supernatant were neutralized with 1 part 0.5 M Tris-HCl pH 6.8 and used to quantify Aβ.
(§5) To quantify the amount of Aβ42, Aβ40, Aβ38, and Aβ37 in the soluble fraction of the brain homogenates, simultaneous specific detection of Aβ42, Aβ40, Aβ38, and Aβ37 was performed using MSD's electro-chemiluminescence multiplex detection technology. In this assay purified monoclonal antibodies specific for Abeta37 (JRD/Aβ37/3), Abeta38 (J&JPRD/Aβ38/5), Abeta40 (JRF/cAβ40/28), and Abeta42 (JRF/cAβ42/26) were coated on MSD 4-plex plates. Briefly, the standards (a dilution of synthetic Aβ42, Aβ40, Aβ38, and Aβ37) were prepared in 1.5 ml Eppendorf tube in Ultraculture, with final concentrations ranging from 10000 to 0.3 pg/m. The samples and standards were co-incubated with Sulfo-tag labelled JRF/rAß/2 antibody to the N-terminus of Aβ as detector antibody. 50 μl of conjugate/sample or conjugate/standards mixtures were then added to the antibody-coated plate. The plate was allowed to incubate overnight at 4° C. in order to allow formation of the antibody-amyloid complex. Following this incubation and subsequent wash steps the assay was finished by adding read buffer according to the manufacturer's instructions (Meso Scale Discovery, Gaitherburg, Md.).
The SULFO-TAG emits light upon electrochemical stimulation initiated at the electrode. MSD Sector instrument SI6000 was used for signal read-out. […]

Aβ38 = experiment: In vivo efficacy: brain level of soluble Aβ38, non-transgenic rodents, single oral dose 30 mg/kg, 4 h, MSD electrochemiluminescence, untreated control = 100; set-up: species or system mouse; conditions: for response vs control in vivo at 30 mg/kg / response vs control in vivo at 10 mg/kg: Mus musculus, read-out: Aβ38 (% vs Ctrl) _Mean; for response vs control in vivo at 10 mg/kg: 10 mpk po; for Aβ38 (% vs Ctrl) _Mean: 30 mg/kg
Text: To determine whether acute administration of an Aβ38 increasing agents would increase Aβ38 levels in vivo, non-transgenic rodents, e.g. mice or rats were used. Animals treated with the Aβ38 increasing agents were examined and compared to those untreated or treated with vehicle and brain levels of soluble Aβ42, Aβ40, Aβ38, and Aβ37 were quantitated by MSD electrochemiluminescence detection technology.
Treatment periods varied from hours (h) to days and were adjusted based on the results of the Aβ38 increase once a time course of onset of effect could be established.
A typical protocol for measuring Aβ38 increase in vivo is shown but it is only one of many variations that could be used to optimize the levels of detectable Aβ. For example, Aβ38 increasing agents were formulated in 20% of Captisol® (a sulfobutyl ether of β-cyclodextrin) in water or 20% hydroxypropyl β cyclodextrin. The Aβ38 increasing agents were administered as a single oral dose or by any acceptable route of administration to overnight fasted animals. After 4 h, the animals were sacrificed and Aβ38 levels were analysed.
as §3, §4
as §5, with “[…].” for “pg/m.”
(§6) The SULFO-TAG emits light upon electrochemical stimulation initiated at the electrode. MSD Sector instrument SI6000 was used for signal read-out.
In this model a Aß38 increase compared to untreated animals would be advantageous, in particular a Aß38 increase with at least 10%, more in particular a Aß38 increase with at least 20%. […]

Aβ42 = experiment: In vivo efficacy: brain level of soluble Aβ42, non-transgenic rodents, single oral dose 30 mg/kg, 4 h, MSD electrochemiluminescence, untreated control = 100; set-up: species or system mouse; conditions: for response vs control in vivo at 30 mg/kg / response vs control in vivo at 10 mg/kg: Mus musculus, read-out: Aβ42 (% vs Ctrl) _Mean; for response vs control in vivo at 10 mg/kg: 10 mpk po; for Aβ42 (% vs Ctrl) _Mean: 30 mg/kg
Text: as §1, §2, §3, §4, §5, §6
In this model a Aß42 lowering compared to untreated animals would be advantageous, in particular a Aß42 lowering with at least 10%, more in particular a Aß42 lowering with at least 20%. […]

SMILES	response vs control in vivo at 30 mg/kg (Aβ40; po, dose 30 mg/kg oral dosing) [%]	response vs control in vivo at 30 mg/kg (Aβ38; po, dose 30 mg/kg oral dosing) [%]	response vs control in vivo at 30 mg/kg (Aβ42; po, dose 30 mg/kg oral dosing) [%]	melting point [°C]	response vs control in vivo at 30 mg/kg (Aβ40; sc, 30 mpk sc (footnote *)) [%]	response vs control in vivo at 30 mg/kg (Aβ38; sc, 30 mpk sc) [%]	response vs control in vivo at 30 mg/kg (Aβ42; sc, 30 mpk sc) [%]	also measured
Cc1cn(-c2ccc3n(c2=O)CCN(C(C)c2coc4cc(F)c(Cl)cc24)C3=O)cn1 (single isomer, unassigned) [Compound 61]	90	192	86	231				
Cc1cn(-c2ccc3n(c2=O)CC(C)N(C(C)c2coc4cc(F)c(C(F)(F)F)cc24)C3=O)cn1 (single isomer, unassigned) [Compound 89]				230				response vs control in vivo at 10 mg/kg (Aβ40; po): 67%; response vs control in vivo at 10 mg/kg (Aβ38; po): 132%; response vs control in vivo at 10 mg/kg (Aβ42; po): 58%
Cc1cn(-c2ccc3n(c2=O)C[C@@H](C)N(Cc2cc4cc(Br)ccc4o2)C3=O)cn1 [Compound 13]	101	117	77	159				
Cc1cn(-c2ccc3n(c2=O)CC(C)N(Cc2csc4c2CC(C(F)(F)F)CC4)C3=O)cn1 (centres unmarked) [Compound 35]	108	116	112					
Cc1cn(-c2ccc3n(c2=O)CC(C)N(C(C)c2cc(OC4CC4)cc(C(F)(F)F)c2)C3=O)cn1 (centres unmarked) [Compound 48]	91							Aβ38 (% vs Ctrl) _Mean (Aβ38; dose 30 mg/kg oral dosing): 161 % vs Ctrl; Aβ42 (% vs Ctrl) _Mean (Aβ42; dose 30 mg/kg oral dosing): 60 % vs Ctrl
Cc1cn(-c2ccc3n(c2=O)CC(C)N(C(C)c2cc(OC4CC4)cc(C(F)(F)F)c2)C3=O)cn1 (centres unmarked) [Compound 49]								Aβ40 (% vs Ctrl) _Mean (Aβ40; dose 30 mg/kg oral dosing, 30 mg/kg): 101 % vs Ctrl; Aβ38 (% vs Ctrl) _Mean (Aβ38; dose 30 mg/kg oral dosing): 123 % vs Ctrl; Aβ42 (% vs Ctrl) _Mean (Aβ42; dose 30 mg/kg oral dosing): 85 % vs Ctrl
Cc1cn(-c2ccc3n(c2=O)C[C@@H](C)N(CC2(c4cc(OC5CC5)cc(C(F)(F)F)c4)CC2)C3=O)cn1 [Compound 53]	121	124	120					
Cc1cn(-c2ccc3n(c2=O)C[C@@H](C)N(Cc2coc4ccc(Cl)cc24)C3=O)cn1 [Compound 55]	113	142	93					
Cc1cn(-c2ccc3n(c2=O)C[C@@H](C)N(Cc2coc4c(F)cc(Cl)cc24)C3=O)cn1 [Compound 62]	87	113	82					
Cc1cn(-c2ccc3n(c2=O)C[C@@H](C)N(Cc2coc4cc(F)c(Cl)cc24)C3=O)cn1 [Compound 63]					62	135	58	
Cc1cn(-c2ccc3n(c2=O)CCN(Cc2coc4ccc(C(F)(F)F)cc24)C3=O)cn1 [Compound 64]				211	132	155	108	
Cc1cn(-c2ccc3n(c2=O)C[C@@H](C)N(Cc2coc4cc(C(F)(F)F)ccc24)C3=O)cn1 [Compound 72]	88	130	64	215				
Cc1cn(-c2ccc3n(c2=O)C[C@@H](C)N(Cc2coc4ccc(C(F)(F)F)cc24)C3=O)cn1 [Compound 73]				187	114	110	97	
Cc1cn(-c2ccc3n(c2=O)C[C@@H](C)N(Cc2coc4c(Cl)cc(Cl)cc24)C3=O)cn1 [Compound 74]				202				response vs control in vivo at 10 mg/kg (Aβ40; po): 100%; response vs control in vivo at 10 mg/kg (Aβ38; po): 144%; response vs control in vivo at 10 mg/kg (Aβ42; po): 83%
Cc1cn(-c2ccc3n(c2=O)CC(C)N(C(C)c2coc4ccc(C(F)(F)F)cc24)C3=O)cn1 (centres unmarked) [Compound 79]					62	175	54	
Cc1cn(-c2ccc3n(c2=O)C[C@@H](C)N(Cc2coc4ccc(OC(F)(F)F)cc24)C3=O)cn1 [Compound 83]					41	166	40	
Cc1cn(-c2ccc3n(c2=O)C[C@@H](C)N(Cc2coc4cc(F)c(C(F)(F)F)cc24)C3=O)cn1 [Compound 84]				222	21	237	25	

From patent publication US10562897B2, “Substituted 3,4-dihydro-2H-pyrido[1,2-a]pyrazine-1,6-diones as gamma secretase modulators” (Janssen Pharmaceutica NV, priority 2014, dated 2020)
